Measured values: patent US11622991B2, “Protocol for treatment of lupus nephritis” (Aurinia Pharmaceuticals Inc., priority 2017, dated 2023)
Read-outs that look alike come from different tables or passages of the source.

Key:
lupus nephritis [1] = test: Predictability from early reduction in UPCR or C3/C4 normalization combined at 12 weeks (Tables 13-17); type: in vivo, human
Source text: (§1) PR is defined as at least 50% reduction in proteinuria (i.e. UPCR).
(§2) Sensitivity is defined as the probability that a subject showing PR at 48 weeks would have shown a favorable result with regard to the marker at the designated early time point. In the tables below, this is the ratio of the number of subjects with favorable marker results (early drop or normalization) to the total subjects with 48 week PR.
(§3) Specificity is defined as the probability that a subject not showing PR at 48 weeks would have shown an unfavorable result with regard to the marker at the designated early time point. In the tables below, this is the ratio of the number of subjects with unfavorable marker results (no early drop or no normalization) to the total subjects with no 48 week PR.
(§4) Positive predictive value is defined as the probability that a subject showing a favorable result with respect to the marker at an earlier time point would show PR at 48 weeks. In the tables below, this is the ratio of the number of subjects with favorable marker results who have 48 week PR to those with favorable marker results (early reduction or yes column).
Negative predictive value is defined as the probability that a subject showing an unfavorable result with respect to the marker at an earlier time point would not show PR at 48 weeks. In the tables below, this is the ratio of the number of subjects with unfavorable marker results who have no PR at 48 weeks to the total subjects with unfavorable marker results (no early reduction or no column). […]

lupus nephritis [2] = test: 48 week study of LN treatment: complete and partial remission; type: in vivo, human; details: for patients showing complete remission (CR) / patients showing partial remission (PR): 24 weeks
Experimental: The study was conducted over a period of 48 weeks and safety was evaluated at 24 weeks.
Subjects were screened prior to admission to the study by (a) determining that the urine protein creatinine ratio (UPCR) as >1.5 mg/mg as measured by first morning void, and (b) that the eGFR as measured by Chronic Kidney Disease Epidemiology Collaboration equation (CKD-EP1) of >45 ml/min/1.73 m^2. Subjects were assessed after 24 weeks and 48 weeks as well as a subsequent evaluation at 50 weeks.
PR is a composite end-point that includes safety and efficacy: UPCR reduction of 50% from baseline and no use of rescue medication

lupus nephritis [3] = test: Predictability of week 48 partial remission from early C4 normalization (Table 11); type: in vivo, human
Source text: as §1, §2, §3, §4
Negative predictive value is defined as the probability that a subject showing an unfavorable result with respect to the marker at an earlier time point would not show PR at 48 weeks. In the tables below, this is the ratio of the number of subjects with unfavorable marker results who have no PR at 48 weeks to the total subjects with unfavorable marker results (no early reduction or no column).
Another criterion for effectiveness is normalization of C3 and/or C4 concentration in blood. The normal concentration of C3 is 90 mg/dl or greater and for C4 16 mg/dl or greater.

lupus nephritis [4] = details: cited from earlier work
[5] = Early 35% reduction in UPCR or C3/C4 normalization, Week 48, 23.7 mg BID, number of patients
[6] = Early 35% reduction in UPCR or C3/C4 normalization, Week 48, 39.5 mg BID, number of patients
[7] = early 15% reduction in UPCR or C3/C4 normalization, week 12, 23.7 mg BID
[8] = early 15% reduction in UPCR or C3/C4 normalization, week 12, 39.5 mg BID
[9] = early 15% reduction in UPCR or C3/C4 normalization, week 24, 23.7 mg BID
[10] = early 15% reduction in UPCR or C3/C4 normalization, week 24, 39.5 mg BID
[11] = early 15% reduction in UPCR or C3/C4 normalization, week 48, 23.7 mg BID
[12] = early 15% reduction in UPCR or C3/C4 normalization, week 48, 39.5 mg BID
[13] = early 20% reduction in UPCR or C3/C4 normalization, week 12, 23.7 mg BID
[14] = early 20% reduction in UPCR or C3/C4 normalization, week 12, 39.5 mg BID
[15] = early 20% reduction in UPCR or C3/C4 normalization, week 24, 23.7 mg BID
[16] = early 20% reduction in UPCR or C3/C4 normalization, week 24, 39.5 mg BID
[17] = early 20% reduction in UPCR or C3/C4 normalization, week 48, 23.7 mg BID
[18] = early 20% reduction in UPCR or C3/C4 normalization, week 48, 39.5 mg BID
[19] = high dosage 39.5 mg BID with MMF and corticosteroids
[20] = low dosage 23.7 mg BID with MMF and corticosteroids

Question: With C=C/C=C/C[C@@H](C)[C@@H](O)[C@H]1C(=O)N[C@@H](CC)C(=O)N(C)CC(=O)N(C)[C@@H](CC(C)C)C(=O)N[C@@H](C(C)C)C(=O)N(C)[C@@H](CC(C)C)C(=O)N[C@@H](C)C(=O)N[C@H](C)C(=O)N(C)[C@@H](CC(C)C)C(=O)N(C)[C@@H](CC(C)C)C(=O)N(C)[C@@H](C(C)C)C(=O)N1C [voclosporin] as the compound, how does the “No Week 48 Partial Remission, Early Drop or Normal” value (lupus nephritis [1]; [5]) read?
Answer: The value was 8.

Question: And the “No Week 48 Partial Remission, No Early Drop or Normal” value (lupus nephritis [1]; [5])?
Answer: Its value is 3.

Question: What about the “Early Drop or Normal No” value (lupus nephritis [1]; [6]) of the same compound?
Answer: Its value is 9.

Question: And the “No Week 48 Partial Remission, Early Drop or Normal” value (lupus nephritis [1]; [6])?
Answer: The value was 7.

Question: What about the “No Week 48 Partial Remission, No Early Drop or Normal” value (lupus nephritis [1]; [6]) of the same compound?
Answer: Its value is 9.

Question: What about the “Early Drop or Normal No” value (lupus nephritis [1]; [7]) of the same compound?
Answer: Its value is 2.

Question: And the “No Week 48 Partial Remission, No Early Drop or Normal” value (lupus nephritis [1]; [7])?
Answer: The value was 1.

Question: What about the “Week 48 Partial Remission, No Early Drop or Normal” value (lupus nephritis [1]; [7]) of the same compound?
Answer: Its value is 1.

Question: And the “No Week 48 Partial Remission, No Early Drop or Normal” value (lupus nephritis [1]; [8])?
Answer: Its value is 3.

Question: And the “Week 48 Partial Remission, No Early Drop or Normal” value (lupus nephritis [1]; [8])?
Answer: The value was 3.

Question: And the “Early Drop or Normal No” value (lupus nephritis [1]; [9])?
Answer: Its value is 1.

Question: And the “No Week 48 Partial Remission, No Early Drop or Normal” value (lupus nephritis [1]; [9])?
Answer: The value was 1.

Question: What about the “Early Drop or Normal No” value (lupus nephritis [1]; [10]) of the same compound?
Answer: Its value is 9.

Question: And the “No Week 48 Partial Remission, No Early Drop or Normal” value (lupus nephritis [1]; [10])?
Answer: The value was 4.

Question: And the “Early Drop or Normal No” value (lupus nephritis [1]; [11])?
Answer: The value was 1.

Question: What about the “No Week 48 Partial Remission, Early Drop or Normal” value (lupus nephritis [1]; [11]) of the same compound?
Answer: Its value is 10.

Question: And the “No Week 48 Partial Remission, No Early Drop or Normal” value (lupus nephritis [1]; [11])?
Answer: Its value is 1.

Question: And the “Early Drop or Normal No” value (lupus nephritis [1]; [12])?
Answer: The value was 4.

Question: What about the “No Week 48 Partial Remission, No Early Drop or Normal” value (lupus nephritis [1]; [12]) of the same compound?
Answer: Its value is 4.

Question: And the “Early Drop or Normal No” value (lupus nephritis [1]; [13])?
Answer: Its value is 3.

Question: What about the “No Week 48 Partial Remission, No Early Drop or Normal” value (lupus nephritis [1]; [13]) of the same compound?
Answer: The value was 2.

Question: What about the “Week 48 Partial Remission, No Early Drop or Normal” value (lupus nephritis [1]; [13]) of the same compound?
Answer: Its value is 1.

Question: And the “No Week 48 Partial Remission, No Early Drop or Normal” value (lupus nephritis [1]; [14])?
Answer: Its value is 3.

Question: What about the “Week 48 Partial Remission, No Early Drop or Normal” value (lupus nephritis [1]; [14]) of the same compound?
Answer: Its value is 3.

Question: And the “Early Drop or Normal No” value (lupus nephritis [1]; [15])?
Answer: Its value is 1.

Question: And the “No Week 48 Partial Remission, No Early Drop or Normal” value (lupus nephritis [1]; [15])?
Answer: The value was 1.

Question: And the “Early Drop or Normal No” value (lupus nephritis [1]; [16])?
Answer: The value was 9.

Question: What about the “No Week 48 Partial Remission, No Early Drop or Normal” value (lupus nephritis [1]; [16]) of the same compound?
Answer: Its value is 4.

Question: What about the “Early Drop or Normal No” value (lupus nephritis [1]; [17]) of the same compound?
Answer: The value was 1.

Question: What about the “No Week 48 Partial Remission, Early Drop or Normal” value (lupus nephritis [1]; [17]) of the same compound?
Answer: Its value is 10.

Question: What about the “No Week 48 Partial Remission, No Early Drop or Normal” value (lupus nephritis [1]; [17]) of the same compound?
Answer: Its value is 1.

Question: And the “Early Drop or Normal No” value (lupus nephritis [1]; [18])?
Answer: The value was 4.

Question: What about the “No Week 48 Partial Remission, No Early Drop or Normal” value (lupus nephritis [1]; [18]) of the same compound?
Answer: Its value is 4.

Question: And the “patients showing complete remission (CR)” value (lupus nephritis [2]; [19])?
Answer: Its value is 27%.

Question: What about the “patients showing partial remission (PR)” value (lupus nephritis [2]; [19]) of the same compound?
Answer: The value was 66%.

Question: What about the “patients showing complete remission (CR)” value (lupus nephritis [2]; [20]) of the same compound?
Answer: Its value is 32.6%.

Question: And the “patients showing partial remission (PR)” value (lupus nephritis [2]; [20])?
Answer: Its value is 70%.

Question: And the “subjects showing complete remission (CR)” value (lupus nephritis [2]; 48 weeks, low dosage 23.7 mg BID with MMF and corticosteroids)?
Answer: Its value is 49%.

Question: What about the “No Week 48 Partial Remission No Normalization” value (lupus nephritis [3]; week 12, 23.7 mg BID) of the same compound?
Answer: The value was 8.

Question: And the “No Week 48 Partial Remission Normalization” value (lupus nephritis [3]; week 12, 23.7 mg BID)?
Answer: Its value is 10.

Question: What about the “No Week 48 Partial Remission No Normalization” value (lupus nephritis [3]; week 12, 39.5 mg BID) of the same compound?
Answer: The value was 9.

Question: And the “No Week 48 Partial Remission Normalization” value (lupus nephritis [3]; week 12, 39.5 mg BID)?
Answer: The value was 8.

Question: What about the “Normalization No” value (lupus nephritis [3]; week 12, 39.5 mg BID) of the same compound?
Answer: The value was 31.

Question: And the “Normalization Yes” value (lupus nephritis [3]; week 12, 39.5 mg BID)?
Answer: Its value is 48.

Question: And the “No Week 48 Partial Remission Normalization” value (lupus nephritis [3]; week 24, 23.7 mg BID)?
Answer: The value was 8.

Question: What about the “Normalization No” value (lupus nephritis [3]; week 24, 23.7 mg BID) of the same compound?
Answer: The value was 31.

Question: And the “Week 48 Partial Remission Normalization” value (lupus nephritis [3]; week 24, 23.7 mg BID)?
Answer: The value was 32.

Question: And the “Normalization No” value (lupus nephritis [3]; week 48, 23.7 mg BID)?
Answer: Its value is 31.

Question: And the “Week 48 Partial Remission Normalization” value (lupus nephritis [3]; week 48, 23.7 mg BID)?
Answer: Its value is 29.

Question: And the “No Week 48 Partial Remission No Normalization” value (lupus nephritis [3]; week 48, 39.5 mg BID)?
Answer: Its value is 11.

Question: What about the remission (lupus nephritis [4]; 23.7 mg or 39.5 mg twice daily with MMF and reducing corticosteroid, 24 weeks and 48 weeks) of the same compound?
Answer: The remission was “successful complete or partial remission in a large number of patients”.

Question: What about the remission (lupus nephritis [4]; 23.7 mg twice daily with MMF and reducing corticosteroid dose, 24 weeks) of the same compound?
Answer: Its remission is “complete remission or partial remission in a large percentage of subjects”.
